Data published in ChEMBL document CHEMBL1151322, “Phycomysterols and other sterols from the fungus Phycomyces blakesleeanus” (J Nat Prod, 1998).
Converted amounts (≈) assume the structure as drawn.

How the values were obtained:
[1] = Antitumor activity against mouse SCHABEL cells; type: functional, cell-based
[2] = test system: Human immunodeficiency virus; assay: Antiviral activity against HIV at 0.64 ug/well; type: functional
[3] = test system: SK-MEL-28; assay: Antitumor activity against human SK-MEL-28 cells; type: functional, cell-based
[4] = test system: HT-29; assay: Antitumor activity against human HT-29 cells; type: functional, cell-based
[5] = test system: A549; assay: Antitumor activity against human A549 cells; type: functional, cell-based
[6] = test system: P388; assay: Antitumor activity against mouse P388 cells; type: functional, cell-based

## C=C(CC[C@@H](C)[C@H]1CC[C@H]2c3ccc4c(c3CC[C@]12C)CC[C@H](O)C4)C(C)C [PHYCOMYSTEROL A]
[1]
  IC50: 5 µg/mL (≈ 13.1 µM)
[2]
  Activity: 64%
[3]
  IC50: 10 µg/mL (≈ 26.3 µM)
[4]
  IC50: 10 µg/mL (≈ 26.3 µM)
[5]
  IC50: 10 µg/mL (≈ 26.3 µM)
[6]
  IC50: 5 µg/mL (≈ 13.1 µM)
